Reference: article PMC11049645, “Mechanistic Study of Novel Dipeptidyl Peptidase IV Inhibitory Peptides from Goat’s Milk Based on Peptidomics and In Silico Analysis” (Foods, 2024)
Read-outs that look alike come from different tables or passages of the source. Blank lines part the entries; values can stand above or below the compound they belong to. Peptide text beside a SMILES is read from it.

Assays:
[1] = tested on: DPP-IV; settings: cited from earlier work
[2] = target: T1, DPP-IV (Homo sapiens, UniProt P27487); test: DPP-IV inhibitory assay (in vitro chemical system, Gly-Pro-pNA); assay type: biochemical; settings: Gly-Pro-pNA substrate, pH 8, 37 °C, 60 min, mean ± SD
T1 construct: purchased Sigma-Aldrich
T1 sequence (P27487 whole entry): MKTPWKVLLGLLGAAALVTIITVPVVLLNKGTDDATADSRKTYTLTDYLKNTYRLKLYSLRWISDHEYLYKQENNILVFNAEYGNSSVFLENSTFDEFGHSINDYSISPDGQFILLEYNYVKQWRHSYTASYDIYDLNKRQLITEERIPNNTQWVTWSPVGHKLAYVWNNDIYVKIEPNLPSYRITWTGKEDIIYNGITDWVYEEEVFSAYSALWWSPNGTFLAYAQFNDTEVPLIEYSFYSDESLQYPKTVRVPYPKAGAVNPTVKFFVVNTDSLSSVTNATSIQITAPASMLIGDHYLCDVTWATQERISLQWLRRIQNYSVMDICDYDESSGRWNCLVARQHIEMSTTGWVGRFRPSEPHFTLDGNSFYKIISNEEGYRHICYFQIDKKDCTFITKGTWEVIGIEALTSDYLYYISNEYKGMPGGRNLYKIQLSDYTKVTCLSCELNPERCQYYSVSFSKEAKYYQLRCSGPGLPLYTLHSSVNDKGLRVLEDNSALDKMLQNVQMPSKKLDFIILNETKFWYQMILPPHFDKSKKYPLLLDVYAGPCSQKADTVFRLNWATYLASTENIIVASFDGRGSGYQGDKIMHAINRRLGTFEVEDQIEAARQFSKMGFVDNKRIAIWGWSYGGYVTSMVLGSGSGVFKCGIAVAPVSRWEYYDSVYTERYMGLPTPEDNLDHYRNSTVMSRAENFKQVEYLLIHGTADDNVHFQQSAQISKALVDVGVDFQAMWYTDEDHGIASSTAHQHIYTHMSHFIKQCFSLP
Protocol: The DPP-IV inhibitory activity of peptides was performed as previously reported with slight modifications. Briefly, peptides were diluted using 100 mM Tris-HCL buffer (pH = 8). Then, 25 μL diluted peptides were mixed with 25 μL of 1.6 mM Gly-Pro-pNA in a 96-well microplate and incubated at 37 °C for 10 min. […] The DPP-IV-inhibition (DI) was calculated with the following equation: DI%=1−AS−ASC/ANR−ANC×100% where AS (sample) is the optical density in the presence of peptide, DPP-IV, and Gly-Pro-pNA; ASC (sample control) is the optical density when DPP-IV is replaced with Tris-HCl buffer (100 mM, pH 8.0); ANR (negative reaction) is the optical density in the presence of only DPP-IV solution and Gly-Pro-pNA; and ANC (negative control) is the optical density in the absence of DPP-IV and peptide.

[3] = tested on: Caco-2 cells; test: Cell viability assay (MTT); assay type: cell-based; settings: 0.025~1 mg/mL, 12 h
Protocol: (§1) The Caco-2 cells (Cell Bank of Shanghai Academy of Biological Science, Shanghai, China) were incubated at 37 °C in a 5% CO2 environment in DMEM supplemented with 10% FBS and 1% penicillin–streptomycin liquid. Unless otherwise stated below, the cells were cultivated at a density of 5 × 10^4 cells/mL in the culture dishes (Corning Inc., Corning, NY, USA). The cell culture medium was changed every two days, and the cells from passage numbers of 15–25 were used in this study.
The cell viability was determined following the method described by You et al. with slight modification. Briefly, Caco-2 cells were seeded in 96-well microplates with a density of 1 × 10^4 cells/well and incubated at 37 °C with 5% CO2 for 24 h. […] After 12 h of intervention, 10 μL of MTT (0.05 mg) was added and incubated for another 4 h. Finally, the DMEM medium was replaced with 100 μL of DMSO and the absorbance of the solubilized crystals was detected at 490 nm (Molecular Devices SpectraMax M5, San Jose, CA, USA). The cell viability was calculated by the following equation:Cell viability (%) = (ODtest − ODblank)/(ODcontrol − ODblank) × 100%

[4] = target: T2, DPP-IV activity of Caco-2 cells (Homo sapiens, UniProt P27487); test: In situ cell-based DPP-IV inhibition (Gly-Pro-AMC); settings: 1 h at 37 °C, Gly-Pro-AMC 50 µM, mean ± SD (n = 3), read-out: In situ DPP-IV inhibitory activity IC50
T2 construct: endogenous in cells; host or cells: Caco-2
T2 sequence (P27487 whole entry): as above
Protocol: as §1
Briefly, 2 × 10^4 Caco-2 cells/well cells were seeded in 96-well microplates and cultivated for 24 h. […] Subsequently, 100 µL of the fluorescent substrate Gly-Pro-AMC (50 µM) was added to each well and incubated for 5 min. IPI was used as a positive control. Then, the florescence was monitored with excitation and emission wavelengths of 380 nm and 500 nm (Molecular Devices SpectraMax M5, San Jose, CA, USA).

[5] = in vitro inhibition test, camel-milk-derived protein hydrolysates
[6] = read-out: DPP-IV inhibition IC50
[7] = in vitro, identified in the intestinal tract following cow milk ingestion, read-out: DPP-IV inhibition IC50
[8] = peptides with molecular weights greater than 1000 Da, no reference given, read-out: DPP-IV inhibition IC50
[9] = competitive DPP-IV inhibitory peptides from camel whey protein, read-out: DPP-IV inhibition IC50

Compound: LPVP
IC50 [1, 5]: 87 ± 3.2 µM

Compound: LLAP
DPP-IV inhibitory activity (in words) [1]: high DPP-IV inhibitory activity

Compound: IPYWTY
IC50 [1, 6]: 11 µM

DPP-IV Inhibitory Activity (IC50, μM) [2]: not detectable
Compound: LVW [Peptide P11]

Compound: LPVPQ
IC50 [1, 7]: 43.8 ± 8.8 µM

IC50 [2]: 214 ± 0.64 µM
IC50 [4]: 155 ± 8.41 µM
Compound: CC(C)C[C@H](NC(=O)[C@@H](N)CC(C)C)C(=O)N[C@@H](CC(C)C)C(=O)N1CCC[C@H]1C(=O)O [Peptide P9, LLLP] (H-LLLP-OH; N-terminus and C-terminus assumed)
Cell viability [3]: no significant decrease in cell viability

IC50 [2]: 1570 ± 256 µM
Compound: CC(C)[C@H](N)C(=O)N1CCC[C@H]1C(=O)N1CCC[C@H]1C(=O)N[C@@H](Cc1ccccc1)C(=O)O [Peptide P2, VPPF] (H-VPPF-OH)

Compound: INNQFLPYPY
IC50 [1, 8]: 40.1 µM

Compound: N[C@@H](Cc1ccc(O)cc1)C(=O)N1CCC[C@H]1C(=O)N[C@@H](Cc1ccccc1)C(=O)O [Peptide P4, YPF] (H-Tyr-Pro-Phe-OH)
Cell viability [3]: no significant decrease in cell viability

Compound: WVL [Peptide P10]
DPP-IV inhibitory activity (in words) ([1]; literature search): previously reported to have DPP-IV inhibitory activity

Compound: MPVQA
IC50 [1, 5]: 93.3 ± 8 µM

Compound: FLEP
IC50 ([1]; tri- and tetrapeptides containing Pro at the C-terminus, read-out: DPP-IV inhibition IC50): 65.3 ± 3.5 µM

DPP-IV Inhibitory Activity (IC50, μM) [2]: not detectable
Compound: FVY [Peptide P6]

IC50 [2]: 1750 ± 29.9 µM
Compound: CC(C)C[C@H](NC(=O)[C@H](C)NC(=O)[C@@H]1CCCN1)C(=O)N[C@@H](Cc1ccccc1)C(=O)O [Peptide P5, PALF] (H-PALF-OH; N-terminus and C-terminus assumed)

DPP-IV Inhibitory Activity (IC50, μM) [2]: not detectable
Compound: LWV [Peptide P12]

Compound: VPF
IC50 [1, 9]: 55.1 µM

DPP-IV Inhibitory Activity (IC50, μM) [2]: not detectable
Compound: LYL [Peptide P7]

Compound: PACGGFYISGRPG
IC50 [1, 8]: 9.4 µM

Compound: IPAVF
IC50 ([1]; identified from bovine β-lactoglobulin, read-out: DPP-IV inhibition IC50): 44.7 µM

Compound: VPV
IC50 [1, 9]: 6.6 µM

Compound: YPI
IC50 [1, 9]: 35 µM

Compound: IPM
IC50 [1, 7]: 69.5 ± 8.7 µM

DPP-IV Inhibitory Activity (IC50, μM) [2]: not detectable
DPP-IV Inhibitory Activity (IC50, μM) ([2]; listed as LLW): no DPP-IV inhibitory activity
Compound: LLW [Peptide P14]

IC50 [2]: 2559 ± 5.7 µM
Compound: CC(C)C[C@H](NC(=O)[C@@H]1CCCN1C(=O)[C@@H]1CCCN1C(=O)[C@@H](N)CC(C)C)C(=O)O [Peptide P3, LPPL] (H-LPPL-OH; N-terminus and C-terminus assumed)

Compound: IPYWT
IC50 [1, 6]: 18.3 µM
